{
  "source": "patent US5409899A",
  "about": "“Pseudopeptide compounds having anti-inflammatory activity” (Adir et Compagnie, priority 1992, dated 1995)",
  "target": "T1, B2 receptor (Oryctolagus cuniculus, UniProt Q28642)",
  "T1 construct": "rabbit jugular vein: B2 receptor; from tissue; host or cells: rabbit jugular vein",
  "T1 sequence (Q28642 1-367)": "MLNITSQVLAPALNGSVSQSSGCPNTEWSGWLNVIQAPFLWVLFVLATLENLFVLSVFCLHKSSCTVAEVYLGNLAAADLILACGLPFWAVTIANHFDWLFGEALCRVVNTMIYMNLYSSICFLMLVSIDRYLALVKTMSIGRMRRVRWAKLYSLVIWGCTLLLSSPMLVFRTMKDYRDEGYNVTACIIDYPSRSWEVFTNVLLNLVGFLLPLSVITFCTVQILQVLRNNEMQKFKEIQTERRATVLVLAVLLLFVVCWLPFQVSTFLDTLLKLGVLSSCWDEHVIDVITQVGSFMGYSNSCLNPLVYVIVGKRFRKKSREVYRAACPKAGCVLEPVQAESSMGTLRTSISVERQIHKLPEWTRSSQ",
  "test": "Inhibition of bradykinin-induced contraction of rabbit jugular vein (B2 receptor)",
  "type": "cell-based",
  "details": "read-out: pA2 (negative logarithm of the molar concentration which necessitates a doubling of the bradykinin concentration to obtain the same effect) (converted)",
  "source_text": "Pharmacological study of the compound of the invention: rabbit jugular vein: B2 receptor",
  "note": "Where a name gives a salt, the structure may show the parent alone. Square brackets hold non-standard residues; d marks the D form. Peptide text beside a SMILES is read from it. * marks the point of attachment. Benzoyl(4-guanidino) = N=C(N)Nc1ccc(C(=O)*)cc1; Oic = O=C(O)[C@@H]1C[C@@H]2CCCC[C@@H]2N1; Hyp = O=C(O)[C@@H]1C[C@@H](O)CN1; dTic = O=C(O)[C@H]1Cc2ccccc2CN1; 2Thi = N[C@@H](Cc1cccs1)C(=O)O",
  "data": [
    {"smiles": "N=C(N)NCCC[C@H](NC(=O)[C@@H]1C[C@@H]2CCCC[C@@H]2N1C(=O)[C@H]1Cc2ccccc2CN1C(=O)[C@H](CO)NC(=O)[C@H](Cc1cccs1)NC(=O)CNC(=O)[C@@H]1C[C@@H](O)CN1C(=O)[C@@H]1CCCN1C(=O)[C@H](CCCNC(=N)N)NC(=O)c1ccc(NC(=N)N)cc1)C(=O)O", "note": "[Example 1, G-Arg-Pro-Hyp-Gly-Thia-Ser-(D)Tic-Oic-Arg-OH trifluoroacetate] ({Benzoyl(4-guanidino)}-RP[Hyp]G[2Thi]S[dTic][Oic]R-OH)", "values": [
      {"measurement": "Kb", "result": 0.186, "unit": "nM"}
    ]}
  ]
}
